Results published in ChEMBL document CHEMBL5705899 (Biochem J, 2014).
Calls of active or inactive are those of the source. No cut-off for these calls is given here.

Tests used:
[1] = target: Mitogen-activated protein kinase 3 (Homo sapiens) (UniProt P27361); assay: Inhibition of human ERK1 at 1 uM using RBER-CHKtide as substrate in presence of 33P-ATP by ProQinase assay
[2] = target: Interleukin-1 receptor-associated kinase 1 (Homo sapiens) (UniProt P51617); assay: Inhibition of human IRAK1 at 1 uM using RB-CTF as substrate in presence of 33P-ATP by ProQinase assay
[3] = target: Mitogen-activated protein kinase 12 (Homo sapiens) (UniProt P53778); assay: Inhibition of human P38gamma at 1 uM using RBER-IRStide as substrate in presence of 33P-ATP by ProQinase assay
[4] = target: Fibroblast growth factor receptor 2 (Homo sapiens) (UniProt P21802); assay: Inhibition of human FGFR2 at 1 uM using polyEY as substrate in presence of 33P-ATP by ProQinase assay
[5] = target: Serine/threonine-protein kinase WNK1 (Homo sapiens) (UniProt Q9H4A3); assay: Inhibition of human WNK1 at 1 uM using 3xChocktide-PKC as substrate in presence of 33P-ATP by ProQinase assay
[6] = target: Ribosomal protein S6 kinase beta-1 (Homo sapiens) (UniProt P23443); assay: Inhibition of human S6K1 at 1 uM using RBER-GSK3 as substrate in presence of 33P-ATP by ProQinase assay
Ribosomal protein S6 kinase beta-1 (Homo sapiens), sequence (P23443 whole entry, looked up, the tested form may be a part): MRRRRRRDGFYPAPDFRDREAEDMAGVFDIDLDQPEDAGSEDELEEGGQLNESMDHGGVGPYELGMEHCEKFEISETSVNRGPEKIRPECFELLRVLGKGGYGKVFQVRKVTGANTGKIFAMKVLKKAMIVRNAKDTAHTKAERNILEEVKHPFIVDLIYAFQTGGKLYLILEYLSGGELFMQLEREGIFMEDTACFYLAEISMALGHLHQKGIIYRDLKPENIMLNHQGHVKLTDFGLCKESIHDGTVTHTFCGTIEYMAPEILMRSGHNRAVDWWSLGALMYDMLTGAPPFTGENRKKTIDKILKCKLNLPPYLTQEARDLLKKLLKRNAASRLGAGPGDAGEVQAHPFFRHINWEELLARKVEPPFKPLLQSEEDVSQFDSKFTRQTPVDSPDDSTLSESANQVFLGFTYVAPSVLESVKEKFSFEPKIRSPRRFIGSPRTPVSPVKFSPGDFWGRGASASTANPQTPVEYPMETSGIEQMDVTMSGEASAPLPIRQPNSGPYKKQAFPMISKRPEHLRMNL

[7] = target: Mitogen-activated protein kinase 1 (Homo sapiens) (UniProt P28482); assay: Inhibition of recombinant human N-terminal GST-tagged ERK2 (2 to 360 residues) expressed in Escherichia coli assessed as remaining activity at 1 uM using MBP as substrate incubated for 30 mins in presence of [gamma-33P]ATP by filter binding method relative to control
[8] = target: Mitogen-activated protein kinase kinase kinase 8 (Homo sapiens) (UniProt P41279); assay: Inhibition of human COT at 1 uM using RBER-CHKtide as substrate in presence of 33P-ATP by ProQinase assay
[9] = target: Serine/threonine-protein kinase 25 (Homo sapiens) (UniProt O00506); assay: Inhibition of human STK25 at 1 uM using casein as substrate in presence of 33P-ATP by ProQinase assay
[10] = target: Serine/threonine-protein kinase BRSK1 (Homo sapiens) (UniProt Q8TDC3); assay: Inhibition of human BRSK1 at 1 uM using RBER-CHKtide as substrate in presence of 33P-ATP by ProQinase assay
Serine/threonine-protein kinase BRSK1 (Homo sapiens), sequence (Q8TDC3 whole entry, the tested form may be a part): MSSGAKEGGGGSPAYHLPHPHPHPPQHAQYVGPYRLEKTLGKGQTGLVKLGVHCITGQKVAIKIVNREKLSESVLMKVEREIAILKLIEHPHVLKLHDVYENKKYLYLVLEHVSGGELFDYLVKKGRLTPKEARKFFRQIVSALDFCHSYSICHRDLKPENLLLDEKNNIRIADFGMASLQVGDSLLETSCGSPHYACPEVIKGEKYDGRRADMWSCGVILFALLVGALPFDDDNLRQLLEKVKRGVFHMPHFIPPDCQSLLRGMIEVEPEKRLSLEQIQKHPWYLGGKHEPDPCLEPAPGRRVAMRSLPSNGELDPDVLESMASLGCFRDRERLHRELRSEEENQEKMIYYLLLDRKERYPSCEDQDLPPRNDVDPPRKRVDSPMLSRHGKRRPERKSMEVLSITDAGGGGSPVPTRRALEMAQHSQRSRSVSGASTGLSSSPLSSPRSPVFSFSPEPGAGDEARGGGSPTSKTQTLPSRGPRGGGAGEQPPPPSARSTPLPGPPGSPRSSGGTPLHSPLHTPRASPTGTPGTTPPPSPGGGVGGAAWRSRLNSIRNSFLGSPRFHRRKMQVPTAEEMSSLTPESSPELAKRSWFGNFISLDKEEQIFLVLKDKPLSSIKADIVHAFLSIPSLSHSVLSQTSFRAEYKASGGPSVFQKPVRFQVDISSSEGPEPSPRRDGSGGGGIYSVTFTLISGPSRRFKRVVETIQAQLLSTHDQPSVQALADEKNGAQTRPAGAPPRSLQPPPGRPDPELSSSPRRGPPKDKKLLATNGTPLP

[11] = target: Insulin-like growth factor 1 receptor (Homo sapiens) (UniProt P08069); assay: Inhibition of recombinant human N-terminal His6-tagged IGF1R (954 to 1367 residues) expressed in baculovirus infected Sf21 cells assessed as remaining activity at 1 uM using KKKSPGEYVNIEFG as substrate incubated for 30 mins in presence of [gamma-33P]ATP by filter binding method relative to control
[12] = target: Serine/threonine-protein kinase ULK1 (Homo sapiens) (UniProt O75385); assay: Inhibition of recombinant human ULK1 (2 to 1050 residues) expressed in baculovirus infected Sf21 cells assessed as remaining activity at 1 uM using MBP as substrate incubated for 30 mins in presence of [gamma-33P]ATP by filter binding method relative to control
[13] = target: Serine/threonine-protein kinase D1 (Homo sapiens) (UniProt Q15139); assay: (§1) Inhibition of recombinant human N-terminal His6-tagged PKD1 (2 to 912 residues) expressed in baculovirus infected Sf21 cells assessed as remaining activity at 1 uM using KKLNRTLSVA as substrate incubated for 30 mins in presence of [gamma-33P]ATP by filter binding method relative to control
Serine/threonine-protein kinase D1 (Homo sapiens), sequence (Q15139 whole entry, the tested form may be a part): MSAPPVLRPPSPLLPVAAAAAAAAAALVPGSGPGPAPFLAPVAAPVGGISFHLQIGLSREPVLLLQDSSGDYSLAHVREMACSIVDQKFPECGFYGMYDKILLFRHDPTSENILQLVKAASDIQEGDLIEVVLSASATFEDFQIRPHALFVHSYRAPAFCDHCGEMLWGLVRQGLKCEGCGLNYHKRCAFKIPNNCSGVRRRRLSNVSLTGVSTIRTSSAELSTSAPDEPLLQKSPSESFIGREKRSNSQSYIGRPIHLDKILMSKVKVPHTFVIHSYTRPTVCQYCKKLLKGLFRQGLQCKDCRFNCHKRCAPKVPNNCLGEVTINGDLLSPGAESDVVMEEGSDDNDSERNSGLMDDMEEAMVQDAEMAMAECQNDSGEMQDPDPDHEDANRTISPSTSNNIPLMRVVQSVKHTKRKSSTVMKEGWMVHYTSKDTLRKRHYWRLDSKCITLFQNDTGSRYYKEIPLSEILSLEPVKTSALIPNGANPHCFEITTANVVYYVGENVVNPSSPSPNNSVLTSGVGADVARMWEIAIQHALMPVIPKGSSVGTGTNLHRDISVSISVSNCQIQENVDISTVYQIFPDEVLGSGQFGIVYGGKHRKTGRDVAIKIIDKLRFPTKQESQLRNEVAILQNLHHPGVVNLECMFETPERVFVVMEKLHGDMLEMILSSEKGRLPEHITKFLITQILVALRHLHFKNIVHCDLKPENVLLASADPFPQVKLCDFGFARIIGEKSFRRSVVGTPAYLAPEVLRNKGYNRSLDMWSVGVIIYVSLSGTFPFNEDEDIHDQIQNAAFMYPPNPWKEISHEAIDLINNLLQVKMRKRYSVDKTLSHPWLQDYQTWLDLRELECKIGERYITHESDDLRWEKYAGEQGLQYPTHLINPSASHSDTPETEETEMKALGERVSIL

[14] = target: High affinity nerve growth factor receptor (Homo sapiens) (UniProt P04629); assay: Inhibition of recombinant human N-terminal His6-tagged TrkA (441 to 760 residues) expressed in baculovirus infected Sf21 cells assessed as remaining activity at 1 uM using Poly(Glu,Tyr) as substrate incubated for 30 mins in presence of [gamma-33P]ATP by filter binding method relative to control
[15] = target: CDK9/Cyclin K (Homo sapiens) (UniProt P50750+O75909); assay: Inhibition of human CDK9/CycK at 1 uM using RBER-CHKtide as substrate in presence of 33P-ATP by ProQinase assay; format: protein-complex assay
[16] = target: Tyrosine-protein kinase ITK/TSK (Homo sapiens) (UniProt Q08881); assay: Inhibition of human ITK at 1 uM using polyEY as substrate in presence of 33P-ATP by ProQinase assay
Tyrosine-protein kinase ITK/TSK (Homo sapiens), sequence (Q08881 whole entry): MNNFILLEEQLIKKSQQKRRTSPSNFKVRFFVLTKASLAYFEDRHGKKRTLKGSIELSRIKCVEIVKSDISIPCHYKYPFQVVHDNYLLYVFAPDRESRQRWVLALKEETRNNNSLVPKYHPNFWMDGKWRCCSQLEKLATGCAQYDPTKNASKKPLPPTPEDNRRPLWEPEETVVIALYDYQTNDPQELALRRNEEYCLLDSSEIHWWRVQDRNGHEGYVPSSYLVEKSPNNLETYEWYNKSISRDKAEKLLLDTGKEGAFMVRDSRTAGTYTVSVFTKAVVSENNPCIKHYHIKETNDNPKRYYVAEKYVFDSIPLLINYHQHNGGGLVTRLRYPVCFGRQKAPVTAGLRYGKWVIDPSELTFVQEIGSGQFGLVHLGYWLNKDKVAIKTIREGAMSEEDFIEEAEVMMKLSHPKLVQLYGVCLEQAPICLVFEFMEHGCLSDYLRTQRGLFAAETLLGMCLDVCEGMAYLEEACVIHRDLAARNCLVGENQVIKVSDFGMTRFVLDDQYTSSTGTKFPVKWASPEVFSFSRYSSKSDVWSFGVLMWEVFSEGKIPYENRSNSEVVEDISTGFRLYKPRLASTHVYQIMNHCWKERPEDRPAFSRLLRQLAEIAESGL

[17] = target: Casein kinase II subunit alpha' (Homo sapiens) (UniProt P19784); assay: Inhibition of human CK2alpha2 at 1 uM using casein as substrate in presence of 33P-ATP by ProQinase assay
Casein kinase II subunit alpha' (Homo sapiens), sequence (P19784 whole entry, looked up): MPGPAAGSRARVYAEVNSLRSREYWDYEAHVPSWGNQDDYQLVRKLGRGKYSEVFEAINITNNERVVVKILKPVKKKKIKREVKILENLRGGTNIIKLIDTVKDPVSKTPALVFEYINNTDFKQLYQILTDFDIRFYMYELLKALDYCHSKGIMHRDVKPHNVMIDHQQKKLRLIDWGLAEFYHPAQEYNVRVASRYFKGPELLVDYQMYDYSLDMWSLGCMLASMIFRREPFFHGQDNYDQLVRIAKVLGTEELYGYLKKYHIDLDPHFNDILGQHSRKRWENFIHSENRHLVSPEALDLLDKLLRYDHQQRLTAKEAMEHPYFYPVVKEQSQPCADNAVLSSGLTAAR

[18] = test system: RAF proto-oncogene serine/threonine-protein kinase (Homo sapiens), P04049 [Y340D,Y341D]; assay: Inhibition of human RAF1 Y340D/Y341D double mutant at 1 uM using MEK1-K97M as substrate in presence of 33P-ATP by ProQinase assay
[19] = target: Muscle, skeletal receptor tyrosine-protein kinase (Homo sapiens) (UniProt O15146); assay: Inhibition of human MUSK at 1 uM using poly(Ala,Glu,Lys,Tyr) as substrate in presence of 33P-ATP by ProQinase assay
Muscle, skeletal receptor tyrosine-protein kinase (Homo sapiens), sequence (O15146 whole entry): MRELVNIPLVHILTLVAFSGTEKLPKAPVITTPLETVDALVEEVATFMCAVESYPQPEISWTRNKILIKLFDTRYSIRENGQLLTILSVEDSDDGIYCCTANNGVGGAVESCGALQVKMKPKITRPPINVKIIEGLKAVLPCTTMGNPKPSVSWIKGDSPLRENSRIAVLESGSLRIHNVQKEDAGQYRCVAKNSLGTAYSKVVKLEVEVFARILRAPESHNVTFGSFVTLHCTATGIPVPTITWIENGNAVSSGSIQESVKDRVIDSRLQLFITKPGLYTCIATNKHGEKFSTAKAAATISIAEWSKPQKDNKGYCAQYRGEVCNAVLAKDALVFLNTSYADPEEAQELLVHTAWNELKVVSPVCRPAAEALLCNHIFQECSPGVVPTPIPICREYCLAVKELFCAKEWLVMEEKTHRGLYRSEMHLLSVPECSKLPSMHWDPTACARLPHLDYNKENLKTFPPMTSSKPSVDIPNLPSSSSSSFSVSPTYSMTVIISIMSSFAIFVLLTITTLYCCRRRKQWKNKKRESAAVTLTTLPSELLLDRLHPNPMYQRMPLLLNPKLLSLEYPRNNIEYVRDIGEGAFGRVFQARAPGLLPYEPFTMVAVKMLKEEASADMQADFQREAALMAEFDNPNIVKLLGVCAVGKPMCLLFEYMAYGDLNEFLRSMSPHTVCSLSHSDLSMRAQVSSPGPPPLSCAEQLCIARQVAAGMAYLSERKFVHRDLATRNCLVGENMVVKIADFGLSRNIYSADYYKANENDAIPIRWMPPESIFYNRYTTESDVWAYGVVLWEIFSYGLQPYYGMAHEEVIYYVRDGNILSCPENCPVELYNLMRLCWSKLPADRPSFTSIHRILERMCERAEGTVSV

[20] = target: Serine/threonine-protein kinase B-raf (Homo sapiens) (UniProt P15056); assay: Inhibition of human BRAF at 1 uM using MEK1-K97M as substrate in presence of 33P-ATP by ProQinase assay
[21] = target: Beta-adrenergic receptor kinase 1 (Homo sapiens) (UniProt P25098); assay: Inhibition of human GRK2 at 1 uM using casein as substrate in presence of 33P-ATP by ProQinase assay
[22] = target: Serine/threonine-protein kinase MARK1 (Homo sapiens) (UniProt Q9P0L2); assay: as §1, with “MARK1” for “PKD1”, “795” for “912”, “KKKVSRSGLYRSPSMPENLNRPR” for “KKLNRTLSVA”
[23] = target: Serine/threonine-protein kinase PLK1 (Homo sapiens) (UniProt P53350); assay: Inhibition of recombinant human N-terminal His6-tagged PLK1 (1 to 603 residues) expressed in baculovirus infected Sf21 cells assessed as remaining activity at 1 uM using ISDELMDATFADQEAKKK as substrate incubated for 30 mins in presence of [gamma-33P]ATP by filter binding method relative to control
Serine/threonine-protein kinase PLK1 (Homo sapiens), sequence (P53350 whole entry, the tested form may be a part): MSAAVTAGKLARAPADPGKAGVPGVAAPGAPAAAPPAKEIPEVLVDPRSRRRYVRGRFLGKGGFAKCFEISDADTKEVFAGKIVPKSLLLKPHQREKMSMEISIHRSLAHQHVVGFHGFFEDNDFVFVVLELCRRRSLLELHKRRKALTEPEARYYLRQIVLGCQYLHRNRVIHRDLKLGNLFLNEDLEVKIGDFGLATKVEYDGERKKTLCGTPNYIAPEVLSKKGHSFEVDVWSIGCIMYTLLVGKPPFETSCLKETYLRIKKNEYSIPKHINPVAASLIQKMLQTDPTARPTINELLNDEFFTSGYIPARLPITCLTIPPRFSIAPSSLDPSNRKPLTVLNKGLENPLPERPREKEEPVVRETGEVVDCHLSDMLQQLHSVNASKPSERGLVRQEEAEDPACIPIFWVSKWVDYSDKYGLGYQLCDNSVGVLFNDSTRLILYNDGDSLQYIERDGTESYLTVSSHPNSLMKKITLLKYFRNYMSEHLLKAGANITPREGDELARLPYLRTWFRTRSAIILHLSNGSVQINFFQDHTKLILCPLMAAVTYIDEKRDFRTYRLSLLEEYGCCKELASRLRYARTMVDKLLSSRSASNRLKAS

[24] = target: CDK9/cyclin T1 (Homo sapiens) (UniProt O60563+P50750); assay: Inhibition of human CDK9/CyclinT1 at 1 uM using RBER-CHKtide as substrate in presence of 33P-ATP by ProQinase assay; format: protein-complex assay
[25] = target: Vascular endothelial growth factor receptor 1 (Homo sapiens) (UniProt P17948); assay: Inhibition of human VEGFR1 at 1 uM using polyEY as substrate in presence of 33P-ATP by ProQinase assay

Mitogen-activated protein kinase 3 (Homo sapiens), sequence (P27361 whole entry): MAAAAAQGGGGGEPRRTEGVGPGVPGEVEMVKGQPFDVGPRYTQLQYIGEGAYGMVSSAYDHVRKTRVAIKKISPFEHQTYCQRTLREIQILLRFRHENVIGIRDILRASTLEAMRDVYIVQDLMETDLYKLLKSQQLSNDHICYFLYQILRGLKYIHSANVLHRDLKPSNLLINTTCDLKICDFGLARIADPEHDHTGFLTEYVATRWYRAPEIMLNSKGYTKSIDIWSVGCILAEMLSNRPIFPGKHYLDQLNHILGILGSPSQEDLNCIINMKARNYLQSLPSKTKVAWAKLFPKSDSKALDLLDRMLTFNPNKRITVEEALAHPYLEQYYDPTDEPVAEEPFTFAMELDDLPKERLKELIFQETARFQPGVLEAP

## CC(C)(O)CNc1ncc(-c2ccnc(Nc3ccnc(Cl)c3)n2)c(CC2CC2)n1
[1]
  inhibition: inactive
[2]
  inhibition: inactive
[3]
  inhibition: inactive
[4]
  inhibition: inactive
[5]
  inhibition: inactive
[6]
  inhibition: inactive
[7]
  Activity: 116%
[8]
  inhibition: inactive
[9]
  inhibition: inactive
[10]
  inhibition: inactive
[11]
  Activity: 101%
[12]
  Activity: 98%
[13]
  Activity: 115%
[14]
  Activity: 70%
[15]
  inhibition: inactive
[16]
  inhibition: inactive
[17]
  inhibition: inactive
[18]
  inhibition: inactive
[19]
  inhibition: inactive
[20]
  inhibition: inactive
[21]
  inhibition: inactive
[22]
  Activity: 114%
[23]
  Activity: 114%
[24]
  inhibition: inactive
[25]
  inhibition: inactive
